Several values for one entry are separate records, joined by “and”; a condition that tells them apart may be missing. Identical values can stand only once.
How the values were obtained:
[1] = system: LAT1; design: method as in PMID 21770378, PMID 11901210, PMID 25205473, PMID 30048132; conditions: cited from earlier work
[2] = system: STC-1 xenografts; experiment: Ex vivo biodistribution in NSG mice bearing STC-1 xenografts; conditions: STC-1 xenograft NSG mice, 1.5MBq i.v.
Protocol: (§1) All animal studies were carried out according to regulations set forth and approved by the Johns Hopkins Animal Care and Use Committee. Female, 6- to 8-weeks-old immunodeficient NOD scid gamma (NSG) mice were subcutaneously inoculated with 1 million PC12, STC-1 or COLO-320 cells in […] of Hank’s balanced salt solution in the top flank. Tumors of 4–6 mm in diameter (typically 14-21 days post inoculation) were utilized for in vivo imaging or ex vivo biodistribution studies.
(§2) Mice (n=5 per group) were intravenously injected with 1.5MBq (40μCi) of each tracer in 150μL of saline. Ex vivo biodistribution studies were performed at 30min and 120min time points after tracer administration. Blood, liver, spleen, heart, lungs, kidneys, small intestines, stomach, muscle, fat, bone, bladder, brain and tumor tissues were retrieved, weighed, and counted in an automated gamma counter (1282 Compugamma CS). Percentage injected dose per gram (%ID/g) values were calculated based on normalization to external standards, counted in triplicate, and accounted for signal-decay correction.

[3] = system: STC-1 cells; experiment: In vitro uptake (binding) assay in STC-1 cells; assay type: cell-based; conditions: 30mins incubation, 1 million cells, % incubated dose/million cells
Protocol: (§3) Both [^18F]FDOPA enantiomers were initially assessed in vitro in all NET cells.
(§4) In vitro binding assays were carried out, in triplicate, in PBS with 0.5% FBS, for 30mins at ambient temperatures using 1 million cells and repeated three times. Blocking studies were carried out using 10meq of the commercial LAT1 inhibitor, 2-Aminobicyclo[2.2.1]heptane-2-carboxylic acid (TOCRIS, MN, USA). Following incubation with each tracer, cells were rinsed three times with cold PBS prior to being counted on an automated gamma counter (1282 Compugamma CS; Pharmacia/LKBNuclear, Inc.) along with external standards. Obtained counts were converted into percentage incubated dose per million cells based on normalization to external standards. Experiments were performed in triplicate and repeated three times.

[4] = system: STC-1 xenografts; experiment: In vivo PET-CT quantitative image analysis, STC-1 xenografts; conditions: STC-1 tumors, NSG mice, 9MBq
Protocol: as §1
(§5) Mice (n=4) were injected with 9MBq (250μCi) of each tracer in 150μL of saline intravenously and anesthetized with 3% isoflurane prior to being placed on the scanner bed. Mice were kept warm with an external light source and maintained at 1% isoflurane levels while being scanned. PET imaging (2 beds; 10 min per bed) was carried out using an ARGUS small-animal PET/CT scanner (Sedecal). A CT scan (512 projections) was obtained at the end of each PET scan for anatomical co-registration. For in vivo blocking experiments, mice were injected with 10meq of LAT1 inhibitor. PET data were reconstructed using the 2-dimensional ordered subsets-expectation maximization algorithm (2D-OSEM) and corrected for dead time and radioactive decay. Data visualization and image generation were carried out using Amira 2019.1 (ThermoFisher Scientific).
(§6) Quantitative in vivo image analysis was carried out in AMIDE (SourceForge) 1.0.4 utilizing ellipsoid region-of-interest volume integrations with 3 slices entailing a depth of 1.9 mm per slice. The %ID per cc values were calculated based on a calibration factor obtained from a phantom (known radioactive quantity in a known volume).

[5] = system: PC12 cells; experiment: In vitro uptake (binding) assay in PC12 cells; assay type: cell-based; conditions: 30mins incubation, 1 million cells
Protocol: as §3, §4

[6] = system: PC12 xenografts; experiment: Ex vivo biodistribution in NSG mice bearing PC12 xenografts; conditions: PC12 xenograft NSG mice, 1.5MBq i.v.
Protocol: as §1, §2

[7] = system: COLO-320 xenografts; experiment: Ex vivo biodistribution in NSG mice bearing COLO-320 xenografts; conditions: for small intestines retention, fold higher than tumor uptake: COLO-320 mice
Protocol: as §1, §2

[8] = system: COLO-320 xenografts; experiment: In vivo PET-CT quantitative image analysis, COLO-320 xenografts; conditions: COLO-320 tumors, NSG mice, 9MBq
Protocol: as §1, §5, §6

[9] = system: LAT1; experiment: In vivo PET-CT blocking by BCH in NET mouse models; design: species or system mice; conditions: all NET mouse models (PC12, STC-1, COLO-320), 10meq LAT1 inhibitor
Protocol: as §5, §6

[10] = system: NET xenografts (STC-1, PC12, COLO-320); experiment: Ex vivo biodistribution, across all NET mouse models; assay type: in vivo, mice; conditions: for brain accumulation, average in all NET mice: average over STC-1, COLO-320 and PC12 mice
Protocol: as §1, §2

[11] = system: PC12 xenografts; experiment: In vivo PET-CT quantitative image analysis, PC12 xenografts; conditions: PC12 tumors, NSG mice, 9MBq
Protocol: as §1, §5, §6

[12] = COLO-320 xenograft NSG mice, 30min p.i., 1.5MBq i.v.
[13] = COLO-320 xenograft NSG mice, 120min p.i., 1.5MBq i.v.

N[C@@H](Cc1ccc(O)c(O)c1)C(=O)O [L-DOPA, 3,4-dihydroxy-L-phenylalanine]
IC50 [1]: 69 ± 29 µM

N[C@@H](Cc1cc(O)c(O)cc1[18F])C(=O)O [L-[^18F]FDOPA, 3,4-dihydroxy-6-[^18F]fluoro-L-phenylalanine]
Biodistribution, Bladder ([2]; 30min p.i.): 5.15 %ID/g
Biodistribution, Blood ([2]; 30min p.i.): 3.94 %ID/g
Biodistribution, Bone ([2]; 30min p.i.): 3.09 %ID/g
Biodistribution, Brain ([2]; 30min p.i.): 2.16 %ID/g
Biodistribution, Fat ([2]; 30min p.i.): 1.34 %ID/g
Biodistribution, Heart ([2]; 30min p.i.): 2.72 %ID/g
Biodistribution, Kidneys ([2]; 30min p.i.): 8.90 %ID/g
Biodistribution, Liver ([2]; 30min p.i.): 4.87 %ID/g
Biodistribution, Lungs ([2]; 30min p.i.): 4.13 %ID/g
Biodistribution, Muscle ([2]; 30min p.i.): 3.63 %ID/g
Biodistribution, Pancreas ([2]; 30min p.i.): 44.22 %ID/g
Biodistribution, Small Intestines ([2]; 30min p.i.): 16.04±2.47 %ID/g and 16.43 %ID/g
Biodistribution, Spleen ([2]; 30min p.i.): 3.98 %ID/g
Biodistribution, Stomach ([2]; 30min p.i.): 8.97 %ID/g
Biodistribution, Tumor ([2]; 30min p.i.): 11.06 %ID/g
Biodistribution, Bladder ([2]; 120min p.i.): 8.80 %ID/g
Biodistribution, Blood ([2]; 120min p.i.): 1.47 %ID/g
Biodistribution, Bone ([2]; 120min p.i.): 5.40 %ID/g
Biodistribution, Brain ([2]; 120min p.i.): 1.07 %ID/g
Biodistribution, Fat ([2]; 120min p.i.): 0.78 %ID/g
Biodistribution, Heart ([2]; 120min p.i.): 2.34 %ID/g
Biodistribution, Kidneys ([2]; 120min p.i.): 4.00 %ID/g
Biodistribution, Liver ([2]; 120min p.i.): 1.73 %ID/g
Biodistribution, Lungs ([2]; 120min p.i.): 1.89 %ID/g
Biodistribution, Muscle ([2]; 120min p.i.): 2.75 %ID/g
Biodistribution, Pancreas ([2]; 120min p.i.): 20±0.89 %ID/g and 20.71 %ID/g
Biodistribution, Small Intestines ([2]; 120min p.i.): 5.08 %ID/g
Biodistribution, Spleen ([2]; 120min p.i.): 6.55 %ID/g
Biodistribution, Stomach ([2]; 120min p.i.): 6.83 %ID/g
Biodistribution, Tumor ([2]; 120min p.i.): 6.98 %ID/g
in vitro uptake [3]: 2.97±0.07%
tumor uptake, quantitative PET image analysis ([4]; 30min post i.v. injection): 33.29±1.66 %ID/cc
tumor uptake, quantitative PET image analysis ([4]; 120min post i.v. injection): 10.38±1.31 %ID/cc
in vitro uptake [5]: 19.73±0.71 % (incubated dose/million cells)
Biodistribution, Bladder ([6]; 30min p.i.): 7.24 %ID/g
Biodistribution, Blood ([6]; 30min p.i.): 4.14 %ID/g
Biodistribution, Bone ([6]; 30min p.i.): 3.86 %ID/g
Biodistribution, Brain ([6]; 30min p.i.): 1.90 %ID/g
Biodistribution, Fat ([6]; 30min p.i.): 1.25 %ID/g
Biodistribution, Heart ([6]; 30min p.i.): 2.96 %ID/g
Biodistribution, Kidneys ([6]; 30min p.i.): 14.60 %ID/g
Biodistribution, Liver ([6]; 30min p.i.): 8.59 %ID/g
Biodistribution, Lungs ([6]; 30min p.i.): 4.57 %ID/g
Biodistribution, Muscle ([6]; 30min p.i.): 4.70 %ID/g
Biodistribution, Pancreas ([6]; 30min p.i.): 50.08 %ID/g
Biodistribution, Small Intestines ([6]; 30min p.i.): 11.50 %ID/g
Biodistribution, Spleen ([6]; 30min p.i.): 4.30 %ID/g
Biodistribution, Stomach ([6]; 30min p.i.): 9.04 %ID/g
Biodistribution, Bladder ([6]; 120min p.i.): 14.06 %ID/g
Biodistribution, Blood ([6]; 120min p.i.): 2.19 %ID/g
Biodistribution, Bone ([6]; 120min p.i.): 7.19 %ID/g
Biodistribution, Brain ([6]; 120min p.i.): 1.31 %ID/g
Biodistribution, Fat ([6]; 120min p.i.): 1.78 %ID/g
Biodistribution, Heart ([6]; 120min p.i.): 2.45 %ID/g
Biodistribution, Kidneys ([6]; 120min p.i.): 4.84 %ID/g
Biodistribution, Liver ([6]; 120min p.i.): 3.01 %ID/g
Biodistribution, Lungs ([6]; 120min p.i.): 2.43 %ID/g
Biodistribution, Muscle ([6]; 120min p.i.): 3.48 %ID/g
Biodistribution, Pancreas ([6]; 120min p.i.): 36.66 %ID/g
Biodistribution, Small Intestines ([6]; 120min p.i.): 10.02 %ID/g
Biodistribution, Spleen ([6]; 120min p.i.): 6.11 %ID/g
Biodistribution, Stomach ([6]; 120min p.i.): 8.28 %ID/g
small intestines retention, fold higher than tumor uptake ([7]; 30min): 5 fold
small intestines retention, fold higher than tumor uptake ([7]; 120min): 3 fold
Biodistribution, Bladder [7, 12]: 8.38 %ID/g
Biodistribution, Blood [7, 12]: 5.53 %ID/g
Biodistribution, Bone [7, 12]: 5.05 %ID/g
Biodistribution, Brain [7, 12]: 2.58 %ID/g
Biodistribution, Fat [7, 12]: 0.95 %ID/g
Biodistribution, Heart [7, 12]: 3.85 %ID/g
Biodistribution, Kidneys [7, 12]: 13.60 %ID/g
Biodistribution, Liver [7, 12]: 10.68 %ID/g
Biodistribution, Lungs [7, 12]: 6.11 %ID/g
Biodistribution, Muscle [7, 12]: 5.27 %ID/g
Biodistribution, Pancreas [7, 12]: 57.82 %ID/g
Biodistribution, Small Intestines [7, 12]: 15.72 %ID/g
Biodistribution, Spleen [7, 12]: 5.72 %ID/g
Biodistribution, Stomach [7, 12]: 11.27 %ID/g
Biodistribution, Tumor [7, 12]: 5.15 %ID/g
Biodistribution, Bladder [7, 13]: 14.73 %ID/g
Biodistribution, Blood [7, 13]: 2.44 %ID/g
Biodistribution, Bone [7, 13]: 7.40 %ID/g
Biodistribution, Brain [7, 13]: 1.28 %ID/g
Biodistribution, Fat [7, 13]: 1.76 %ID/g
Biodistribution, Heart [7, 13]: 2.74 %ID/g
Biodistribution, Kidneys [7, 13]: 4.16 %ID/g
Biodistribution, Liver [7, 13]: 2.85 %ID/g
Biodistribution, Lungs [7, 13]: 2.55 %ID/g
Biodistribution, Muscle [7, 13]: 4.40 %ID/g
Biodistribution, Pancreas [7, 13]: 37±5.43 %ID/g and 37.13 %ID/g
Biodistribution, Small Intestines [7, 13]: 8.66 %ID/g
Biodistribution, Spleen [7, 13]: 6.72 %ID/g
Biodistribution, Stomach [7, 13]: 7.99 %ID/g
tumor uptake, quantitative PET image analysis ([8]; 30min post i.v. injection): 11.99±0.50 %ID/cc
tumor uptake, quantitative PET image analysis ([8]; 120min post i.v. injection): 15.10±1.30 %ID/cc
tumor uptake after in vivo blocking by BCH [9]: significantly reduced
brain accumulation, average in all NET mice ([10]; 30min p.i.): 2.21±0.17 %ID/g
brain accumulation, average in all NET mice ([10]; 120min p.i.): 1.22±0.16 %ID/g
tumor uptake, fold higher in STC-1 than in COLO-320 tumors ([10]; STC-1 vs COLO-320 tumors): > 2 fold
tumor uptake, quantitative PET image analysis ([11]; 30min post i.v. injection): 35.73±2.50 %ID/cc
tumor uptake, quantitative PET image analysis ([11]; 120min post i.v. injection): 18.82±1.55 %ID/cc

Source: publication PMC6791383, “A side-by-side evaluation of [^18F]FDOPA enantiomers for non-invasive detection of neuroendocrine tumors by positron emission tomography” (Oncotarget, 2019)
